What was measured:
[1] = tested on: CRM1-mediated nuclear export of HDAC7-FLAG; experiment: Subcellular localization of HDAC7-FLAG in transfected cells by indirect immunofluorescence; type: cell-based
Experimental: Immunofluorescence and Confocal Microscopy—Cells were plated onto glass coverslips and transfected the following day with Lipofectamine 2000 (Life Technologies) according to the manufacturer's instructions. After incubation overnight, transfected cells were fixed with 1% paraformaldehyde, permeabilized with phosphate buffered saline (PBS), pH 7.2 and 0.5% Triton X-100 and then incubated for 60 min at room temperature with the appropriate antibodies at dilutions typically between 1:100 and 1:1000. Cells were mounted onto glass slides in PBS/90% glycerol containing 1 mM paraphenylenediamine as an antifade reagent. Confocal microscopy was performed with a Zeiss LSM510 laser scanning confocal microscope at 488 nm (Alexa 488-conjugated secondary antibodies) and 543 nm (Cy3-conjugated secondary antibodies). The pinhole aperture was set to 1.0 airy unit for each channel. Band-pass filters and sequential scanning of individual fluorescent probes were used to eliminate cross talk between channels. Images were collected as 12-bit images, and each channel was independently rescaled from 0 to 255 (8-bit) for final presentation. […]

[2] = tested on: Nur77; experiment: Nur77 mRNA expression by northern blot in DO11.10 T-cells; type: cell-based, mouse; details: DO11.10 cells, 400 nM, various times
Experimental: DO11.10 T cell hybridomas were grown at 37° C., in RPMI 1640 medium supplemented with 10% FBS, 2 mM glutamine and 50 U/ml of streptomycin/penicillin. Transfections were performed by the DEAE-dextran-chlororquine method. The DNA concentration was kept constant in the different samples by using the corresponding empty vector. In some cases, 16 hours after transfection cells were treated with PMA (10 ng/ml) and ionomycin (0.5 μM) for 4 hours and then harvested for reporter assay. All transfections were done in triplicate and are presented as the result of at least 3 independent experiments. Luciferase reporter assays were done with the dual luciferase reporter assay system (Promega) using an EF1α promoter-driven renilla expression vector as an internal control.
The tissue-expression of HDAC7 was analyzed as using a multiple human tissue Northern blot and RNA Master blots obtained from Clontech. Expression of Nur77 upon TSA treatment was assessed as followed. DO11.10 cells were treated with 400 nM of TSA (Sigma) for various times. […] Autoradiographs were analyzed with a FUJIX BAS1000 phosphorus imaging system (Fuji, Tokyo, Japan). Quantification analysis of autoradiographs was performed on a Macintosh computer using the public domain NIH Image 1.62 program (developed at the U.S. National Institute of Health).

[3] = tested on: thymocytes; experiment: Apoptosis in thymocytes expressing dominant negative HDAC7 constructs, commercially available kit; type: cell-based; details: construct expressed in thymocytes
Experimental: Constructs encoding dominant negative mutants of HDAC7 were generated. These constructs direct expression of either the amino terminal domain (amino acids 1-437) or the carboxyl terminal domain (amino acids 438-915) of HDAC7 in mammalian cells. These construct were individually introduced into thymocytes. Apoptosis was measured using a commercially available kit.

Molecule | Apoptosis in thymocytes [3] | also measured
CCC(=C/[C@H](C)C/C=C/C(C)=C/[C@@H](C)C(=O)[C@@H](C)[C@H](O)[C@@H](C)C/C(C)=C/C(=O)O)/C=C/[C@@H]1OC(=O)C=C[C@@H]1C [leptomycin B] | – | Subcellular localization of HDAC7-FLAG [1]: nuclear localization of HDAC7-FLAG in most transfected cells
CC(/C=C/C(=O)NO)=C\[C@@H](C)C(=O)c1ccc(N(C)C)cc1 [trichostatin A] | – | Nur77 mRNA expression [2]: induced in a time dependent manner
amino terminal domain (amino acids 1-437): dominant negative mutant of HDAC7: amino terminal domain, amino acids 1-437, expressed from a construct (protein, UniProt Q8WUI4 1-437, looked up, fragment) MDLRVGQRPPVEPPPEPTLLALQRPQRLHHHLFLAGLQQQRSVEPMRLSMDTPMPELQVGPQEQELRQLLHKDKSKRSAVASSVVKQKLAEVILKKQQAALERTVHPNSPGIPYRTLEPLETEGATRSMLSSFLPPVPSLPSDPPEHFPLRKTVSEPNLKLRYKPKKSLERRKNPLLRKESAPPSLRRRPAETLGDSSPSSSSTPASGCSSPNDSEHGPNPILGSEALLGQRLRLQETSVAPFALPTVSLLPAITLGLPAPARADSDRRTHPTLGPRGPILGSPHTPLFLPHGLEPEAGGTLPSRLQPILLLDPSGSHAPLLTVPGLGPLPFHFAQSLMTTERLSGSGLHWPLSRTRSEPLPPSATAPPPPGPMQPRLEQLKTHVQVIKRSAKPSEKPRLRQIPSAEDLETDGGGPGQVVDDGLEHRELGHGQPEAR | strongly induces apoptosis | –
carboxyl terminal domain (amino acids 438-915): dominant negative mutant of HDAC7: carboxyl terminal domain, amino acids 438-915, expressed from a construct (protein, UniProt Q8WUI4 438-915, looked up, fragment) GPAPLQQHPQVLLWEQQRLAGRLPRGSTGDTVLLPLAQGGHRPLSRAQSSPAAPASLSAPEPASQARVLSSSETPARTLPFTTGLIYDSVMLKHQCSCGDNSRHPEHAGRIQSIWSRLQERGLRSQCECLRGRKASLEELQSVHSERHVLLYGTNPLSRLKLDNGKLAGLLAQRMFVMLPCGGVGVDTDTIWNELHSSNAARWAAGSVTDLAFKVASRELKNGFAVVRPPGHHADHSTAMGFCFFNSVAIACRQLQQQSKASKILIVDWDVHHGNGTQQTFYQDPSVLYISLHRHDDGNFFPGSGAVDEVGAGSGEGFNVNVAWAGGLDPPMGDPEYLAAFRIVVMPIAREFSPDLVLVSAGFDAAEGHPAPLGGYHVSAKCFGYMTQQLMNLAGGAVVLALEGGHDLTAICDASEACVAALLGNRVDPLSEEGWKQKPNLNAIRSLEAVIRVHSKYWGCMQRLASCPDSWVPRVPGA | strongly induces apoptosis | –

From patent publication US7745173B2, “Histone deacetylase and methods of use thereof” (The J. David Gladstone Institutes, priority 2001, dated 2010)
